Each structure is given as a SMILES string.

For series [1], the system named is peritoneal exudate macrophages (PEM). Briefly: Nitrite (NO) production by mouse peritoneal exudate macrophages. It is filed as cell-based. The settings on record: PEM with 50 umol/well MLV (0.1 mg JBT3002/300 μM phospholipid) in the presence of 2 mM NMA. On the procedure:
Peritoneal exudate macrophages (PEM) were collected by peritoneal lavage from mice given an intraperitoneal injection of 2.0 ml of thioglycollate broth (Baltimore Biological Laboratory, Cockeysville, Md.) 4 days before harvest (Dong Z, O'Brian C A, et al. J Leukoc Biol (1993) 53:53-60; Xie K, Huang S, et al. Cancer Res (1995) 55:3123-31). The PEM were washed in Ca^+2- an Mg^2+-free HBSS and resuspended in serum-free medium: 1×10^5 cells were plated into each 38-mm^2 well of 96-2311 culture plates (Falcon Plastics, Oxnard, Calif.). After a 90-min incubation, the nonadherent cells were removed by washing with medium. More than 98% of the adherent cell populations were macrophages according to morphology and phagocytic criteria (Saiki I, et al. J Immunol (1985) 135:684-8). […] After treatment, the cultures were washed and macrophage-mediated cytotoxicity against different tumor targets was determined. […]
Nitrite accumulation in the culture supernatant was measured in a colorimetric assay as described previously (Ding A E, et al. J Immunol (1988) 141:2407-12). […] The mixtures were incubated 10 min with shaking, and A540 was measured with the use of a microplate reader (Model 3550; Bio-Rad Corp., San Francisco, Calif.). The concentration of nitrite was determined by comparing it with a standard solution of sodium nitrite in medium.

Series [2] concerns tumor cells. Briefly: Macrophage-mediated tumor cytotoxicity, target cells not named. The settings on record: PEM with 50 umol/well MLV (0.1 mg JBT3002/300 μM phospholipid) in the presence of 2 mM NMA. It is filed as cell-based. As for the experimental part: Cytotoxicity was assayed by measuring release of radioactivity from target cell DNA as described previously (Dong Z, et al. J Exp Med (1993) 177:1071-7). Briefly, tumor target cells in their exponential growth phase were incubated in medium containing 0.25 μCi/ml of [^3H]TdR (sp. Act. 2 Ci/mmol) (ICN Biomedicals, Inc., Irvine, Calif.) for 24 h. The cells were washed three times with HBSS to remove unbound radioactivity and then harvested by trypsinization (0.25% trypsin in 0.02% EDTA), washed, and resuspended in medium. Cells were plated (at 1×10^4/well) into wells containing control or test macrophages to achieve an E/T cell ratio of 10:1. At this density, macrophages incubated in medium (control) were not cytotoxic to neoplastic cells (Weinstein SL, et al. Proc Natl Acad Sci USA (1991) 88:4148-52; Dong Z, et al. JLeukoc Biol (1993) 53:53-60). […] The lysate was harvested with harvester 96 (Tomtec, Orange, Conn.) and counted for residual radioactivity in a liquid scintillation counter. Macrophage-mediated cytotoxicity was calculated as follows: […]
Efficient activation of macrophages by LPS requires priming by IFN-γ (Saiki I, et al. J Immunol (1985) 135:684-8). […] Tumor cytotoxicity was measured 72 h after the addition of radiolabeled tumor cells to the activated macrophages. […]

Series [3] concerns K-1735 M2 cells. Briefly: Macrophage-mediated cytotoxicity against K-1735 M2 cells. The settings on record: PEM activated by JBT3002. The series is classed as cell-based, mouse.
Series [4] concerns PEM (TNF-α, IL-1α, IL-6, NO). Briefly: Cytokine and nitrite production by PEM (ELISA, Griess). The settings on record: PEM treated with LPS or MLV-JBT3002, genistein 100 μM, PD-98059 10 μM, calphostin-C 250 nM. It is filed as cell-based, mouse. As for the experimental part: Peritoneal exudate macrophages (PEM) were collected by peritoneal lavage from mice given an intraperitoneal injection of 1.5 ml of thioglycollate broth (Baltimore Biological Laboratory, Cockeysville, Md.) 4 days before harvest.(Saiki I, et al. J Immunol (1985) 135:684 688; Dong Z, et a.l J Leukoc Biol (1993) 53:53-60; Dong Z, J et al. J Exp Med (1993) 177:1071-1077) The PEM were washed in CA^2+- and MG^2+-free HBSS and resuspended in serum-free medium: 1×10^5 cells were plated into each 38-mm^2 well of 96-well culture plates (Falcon Plastics, Oxnard, Calif.). After a 90-minute incubation, the nonadherent cells were removed by washing them with medium. More than 98% of the adherent cell populations were macrophages according to morphology and phagocytic criteria. (Saiki I, et al. J Immunol (1985) 135:684 688)
PEM in 96-well plates at a density of 10^5 cells/well/200 μl of medium were treated as indicated in Results. The culture supernatants were harvested and used immediately for the cytokine assays or stored at −70° C. For cell lysates, supernatants were removed and macrophages were frozen-thawed in fresh medium. Specific cytokines in the supernatants or cell lysates (diluted at 1:5 or 1:10) were measured by ELISA kits according to manufacturer's instructions.
The nitrite concentration in culture supernatants was determined by a microplate assay as described previously. Briefly, 50-μl samples harvested from PEM-conditioned medium were treated with an equal volume of Griess reagent (1% sulfanilamide, 0.1% naphthylene diamine dihydrochloride, and 2.5% H3PO4) at room temperature for 10 minutes. The absorbance at 540 nm was monitored with a microplate reader. The nitrite concentration was determined using sodium nitrite as a standard.
On the technique in general: An ELISA detects its analyte on a solid surface through an enzyme-linked reagent.

In the case of `CNC(=N)NCCC[C@H](N)C(=O)O` [NMA, N^G-monomethyl-L-arginine], in series [1], the NO is 1.6 µM. Further, the tumor cytotoxicity in series [2] is on record as 1.3%.
Turning to `O=c1c(-c2ccc(O)cc2)coc2cc(O)cc(O)c12` [genistein, Genistein], the minimal inhibition dose in series [3] is 30 to 40 µM. For the same compound, the “effect of kinase inhibitor on production of NO” value in series [4] was “significantly inhibited”. In addition, in series [4] (H-89), the “effect of kinase inhibitor on production of TNF-α” value is recorded as “significantly inhibited”.

Source of the values: patent US20030017976A1, “Therapeutic properties of liposome-encapsulated immunomodulators” (priority 1998, published 2003).
